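Each compound was tested at five concentrations against cells in 96-well plates for 48 hours. TGI marks complete inhibition of growth.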
Key:
Assay in all cases: NCI-60 cell line screen, 48 h
IGROV1 ovarian = system: IGROV1 ovarian
U251 CNS = system: U251 CNS
MOLT-4 leukemia = system: MOLT-4 leukemia
K-562 leukemia = system: K-562 leukemia
SF-268 CNS = system: SF-268 CNS
SK-MEL-5 melanoma = system: SK-MEL-5 melanoma
UACC-257 melanoma = system: UACC-257 melanoma
OVCAR-5 ovarian = system: OVCAR-5 ovarian
PC-3 prostate = system: PC-3 prostate
MDA-MB-231 breast = system: MDA-MB-231 breast

Q: For `O=NN1C(c2ccccc2)C2CCCC(C2=O)C1c1ccccc1` (centres undefined), which TGI (IGROV1 ovarian) is on record?
A: > 92.7 µM

Q: And the TGI (U251 CNS)?
A: > 84.9 µM

Q: What about the TGI (MOLT-4 leukemia) of the same compound?
A: > 78.1 µM

Q: And the TGI (K-562 leukemia)?
A: 55.3 µM

Q: What about the TGI (SF-268 CNS) of the same compound?
A: > 100 µM

Q: And the TGI (SK-MEL-5 melanoma)?
A: 35.7 µM

Q: And the TGI (UACC-257 melanoma)?
A: 66.2 µM

Q: And the TGI (OVCAR-5 ovarian)?
A: > 100 µM

Q: `COc1ccc(C(=O)O[C@H]2CC[C@@]3(C)[C@@H]4CC[C@H]5[C@]6(O)C[C@H](O)[C@@]7(O)[C@@H](CN8C[C@@H](C)CC[C@H]8[C@@]7(C)O)[C@]6(O)C[C@@]53OC24O)cc1OC` was tested. Which TGI (IGROV1 ovarian) did it give?
A: > 100 µM

Q: And the TGI (U251 CNS)?
A: > 100 µM

Q: What about the TGI (MOLT-4 leukemia) of the same compound?
A: > 100 µM

Q: And the TGI (PC-3 prostate)?
A: > 100 µM

Q: What about the TGI (K-562 leukemia) of the same compound?
A: > 100 µM

Q: What about the TGI (SF-268 CNS) of the same compound?
A: > 100 µM

Q: What about the TGI (SK-MEL-5 melanoma) of the same compound?
A: > 100 µM

Q: And the TGI (UACC-257 melanoma)?
A: > 100 µM

Q: And the TGI (OVCAR-5 ovarian)?
A: > 100 µM

Q: And the TGI (MDA-MB-231 breast)?
A: > 100 µM

Q: Which TGI (IGROV1 ovarian) does the source give for `Cc1cn(C2C=CC(COP(=O)(OCc3ccc([N+](=O)[O-])o3)N(C)CCCCCl)O2)c(=O)[nH]c1=O` (centres undefined) here?
A: 12.7 µM

Q: And the TGI (U251 CNS)?
A: 18.2 µM

Q: What about the TGI (MOLT-4 leukemia) of the same compound?
A: 26.4 µM

Q: And the TGI (PC-3 prostate)?
A: 27.8 µM

Q: And the TGI (K-562 leukemia)?
A: 21.6 µM

Q: What about the TGI (SF-268 CNS) of the same compound?
A: 23.8 µM

Q: And the TGI (SK-MEL-5 melanoma)?
A: 3.26 µM

Q: What about the TGI (UACC-257 melanoma) of the same compound?
A: 18.4 µM

Q: And the TGI (OVCAR-5 ovarian)?
A: 30.9 µM

Q: And the TGI (MDA-MB-231 breast)?
A: 25.9 µM

Q: Which TGI (IGROV1 ovarian) does the source give for `COc1ccc(NC(=S)NNC(=O)c2nsc3ccccc23)cc1` here?
A: > 100 µM

Q: And the TGI (U251 CNS)?
A: > 100 µM

Q: What about the TGI (MOLT-4 leukemia) of the same compound?
A: 87.8 µM

Q: What about the TGI (K-562 leukemia) of the same compound?
A: > 100 µM

Q: And the TGI (SF-268 CNS)?
A: > 100 µM

Q: And the TGI (SK-MEL-5 melanoma)?
A: > 100 µM

Q: What about the TGI (UACC-257 melanoma) of the same compound?
A: > 100 µM

Q: What about the TGI (OVCAR-5 ovarian) of the same compound?
A: > 100 µM

Q: Which results are given for `Nc1c(OCC(=O)O)ccc2cc(S(=O)(=O)O)ccc12`?
A: TGI (IGROV1 ovarian): > 100 µM; TGI (U251 CNS): > 100 µM; TGI (PC-3 prostate): > 100 µM; TGI (K-562 leukemia): > 100 µM; TGI (SF-268 CNS): > 100 µM; TGI (SK-MEL-5 melanoma): > 100 µM; TGI (UACC-257 melanoma): > 100 µM; TGI (MDA-MB-231 breast): > 100 µM

Q: What does the source list for `c1cc(-c2ccc(-c3nc4ccc(C5=NCCN5)cc4s3)s2)ccc1C1=NCCN1`?
A: TGI (IGROV1 ovarian): 2.52 µM; TGI (U251 CNS): 0.821 µM; TGI (MOLT-4 leukemia): 0.879 µM; TGI (PC-3 prostate): 2.27 µM; TGI (K-562 leukemia): 4 µM; TGI (SF-268 CNS): 0.662 µM; TGI (UACC-257 melanoma): > 100 µM; TGI (OVCAR-5 ovarian): 0.327 µM; TGI (MDA-MB-231 breast): 1.49 µM

Q: For `O=C1C[C@H](COCc2ccccc2)NC(=O)C[C@H](COCc2ccccc2)NC(=O)C[C@H](COCc2ccccc2)N1`, which TGI (IGROV1 ovarian) is on record?
A: > 100 µM

Q: And the TGI (U251 CNS)?
A: > 100 µM

Q: What about the TGI (MOLT-4 leukemia) of the same compound?
A: > 100 µM

Q: And the TGI (PC-3 prostate)?
A: > 100 µM

Q: What about the TGI (K-562 leukemia) of the same compound?
A: > 100 µM

Q: What about the TGI (SF-268 CNS) of the same compound?
A: > 100 µM

Q: What about the TGI (SK-MEL-5 melanoma) of the same compound?
A: > 100 µM

Q: What about the TGI (UACC-257 melanoma) of the same compound?
A: > 100 µM

Q: What about the TGI (OVCAR-5 ovarian) of the same compound?
A: > 100 µM

Q: What about the TGI (MDA-MB-231 breast) of the same compound?
A: 85.2 µM

Q: `CN(C)CCCNc1ccc2nnn3c4ccc(OC(=O)c5ccccc5)cc4c(=O)c1c23` was tested. Which TGI (IGROV1 ovarian) did it give?
A: 36.3 µM

Q: And the TGI (U251 CNS)?
A: 29 µM

Q: And the TGI (MOLT-4 leukemia)?
A: 9.41 µM

Q: And the TGI (PC-3 prostate)?
A: 23.8 µM

Q: And the TGI (K-562 leukemia)?
A: 4.49 µM

Q: What about the TGI (SF-268 CNS) of the same compound?
A: 25.6 µM

Q: And the TGI (UACC-257 melanoma)?
A: 34.3 µM

Q: And the TGI (OVCAR-5 ovarian)?
A: 30.4 µM

Q: What about the TGI (MDA-MB-231 breast) of the same compound?
A: 27.3 µM

Q: What does the source list for `CN(CCO)Cc1ncccc1O`?
A: TGI (IGROV1 ovarian): > 100 µM; TGI (U251 CNS): > 100 µM; TGI (MOLT-4 leukemia): 89.5 µM; TGI (PC-3 prostate): > 100 µM; TGI (K-562 leukemia): > 100 µM; TGI (SF-268 CNS): > 100 µM; TGI (SK-MEL-5 melanoma): > 100 µM; TGI (UACC-257 melanoma): > 100 µM; TGI (OVCAR-5 ovarian): > 100 µM; TGI (MDA-MB-231 breast): > 100 µM

Q: What does the source list for `CCCCN(CCCC)CCC(O)c1cc(-c2ccc(C(F)(F)F)cc2)nc(-c2ccc(C(F)(F)F)cc2)c1` (centres undefined)?
A: TGI (IGROV1 ovarian): > 100 µM; TGI (U251 CNS): > 100 µM; TGI (MOLT-4 leukemia): > 100 µM; TGI (PC-3 prostate): > 100 µM; TGI (K-562 leukemia): > 100 µM; TGI (SF-268 CNS): > 100 µM; TGI (UACC-257 melanoma): > 100 µM; TGI (OVCAR-5 ovarian): > 100 µM; TGI (MDA-MB-231 breast): > 100 µM

Q: With `C[C@]12Cc3cnc(-c4ccccc4)nc3C[C@@H]1CC[C@@H]1[C@@H]2CC[C@@]2(C)[C@H]1CC[C@]2(C)O` as the compound, how does the TGI (IGROV1 ovarian) read?
A: 63.3 µM

Q: What about the TGI (U251 CNS) of the same compound?
A: 41.4 µM

Q: And the TGI (MOLT-4 leukemia)?
A: > 100 µM

Q: And the TGI (PC-3 prostate)?
A: 36.3 µM

Q: And the TGI (K-562 leukemia)?
A: 29.4 µM

Q: And the TGI (SF-268 CNS)?
A: 33 µM

Q: What about the TGI (SK-MEL-5 melanoma) of the same compound?
A: 42.9 µM

Q: What about the TGI (UACC-257 melanoma) of the same compound?
A: 44.9 µM

Q: And the TGI (OVCAR-5 ovarian)?
A: 63.4 µM

Q: And the TGI (MDA-MB-231 breast)?
A: 73.1 µM

Q: For `CCOC(=O)Nc1sc2c(c1C#N)CC(C)CC2` (centres undefined), which TGI (IGROV1 ovarian) is on record?
A: > 100 µM

Q: And the TGI (U251 CNS)?
A: > 100 µM

Q: And the TGI (MOLT-4 leukemia)?
A: > 100 µM

Q: What about the TGI (PC-3 prostate) of the same compound?
A: 41.8 µM

Q: And the TGI (K-562 leukemia)?
A: > 100 µM

Q: And the TGI (SF-268 CNS)?
A: 96.6 µM

Q: And the TGI (SK-MEL-5 melanoma)?
A: 16.6 µM

Q: What about the TGI (UACC-257 melanoma) of the same compound?
A: 42.8 µM

Q: What about the TGI (OVCAR-5 ovarian) of the same compound?
A: 99.1 µM

Q: What about the TGI (MDA-MB-231 breast) of the same compound?
A: 46.7 µM

Q: For `COc1ccc(C(=O)NC2=C(Cl)C(=O)c3ccccc3C2=O)cc1`, which TGI (IGROV1 ovarian) is on record?
A: 12.9 µM

Q: And the TGI (U251 CNS)?
A: 8.38 µM

Q: What about the TGI (MOLT-4 leukemia) of the same compound?
A: > 22 µM

Q: What about the TGI (PC-3 prostate) of the same compound?
A: 10.8 µM

Q: What about the TGI (K-562 leukemia) of the same compound?
A: > 100 µM

Q: What about the TGI (SF-268 CNS) of the same compound?
A: 35.6 µM

Q: And the TGI (SK-MEL-5 melanoma)?
A: 4.59 µM

Q: And the TGI (UACC-257 melanoma)?
A: 4.5 µM

Q: And the TGI (OVCAR-5 ovarian)?
A: 11.4 µM

Q: What about the TGI (MDA-MB-231 breast) of the same compound?
A: 14.6 µM

Q: What does the source list for `COc1ccc(/C=C2\C[C@H]3[C@@H]4CC=C5C[C@@H](OC(C)=O)CC[C@]5(C)[C@H]4CC[C@]3(C)\C2=N\O)cc1OC`?
A: TGI (IGROV1 ovarian): > 100 µM; TGI (MOLT-4 leukemia): > 100 µM; TGI (PC-3 prostate): > 100 µM; TGI (K-562 leukemia): > 100 µM; TGI (SF-268 CNS): > 100 µM; TGI (SK-MEL-5 melanoma): 9.83 µM; TGI (UACC-257 melanoma): > 100 µM; TGI (OVCAR-5 ovarian): > 100 µM

Q: What does the source list for `CC(C)=Cc1cc(C)c2c3c(c(O)c(O)c(C)c13)C(C)=CC2=O`?
A: TGI (IGROV1 ovarian): > 100 µM; TGI (U251 CNS): 92 µM; TGI (MOLT-4 leukemia): 54.7 µM; TGI (PC-3 prostate): > 100 µM; TGI (K-562 leukemia): > 100 µM; TGI (SF-268 CNS): 60.3 µM; TGI (SK-MEL-5 melanoma): 35 µM; TGI (UACC-257 melanoma): > 100 µM; TGI (OVCAR-5 ovarian): 73.3 µM; TGI (MDA-MB-231 breast): 64.4 µM

Q: With `CC[C@H](C)C1=C(OC(C)=O)[N@+]2([O-])Oc3ccc(-c4c(O)c(O)c(-c5ccc(OC(C)=O)cc5)c(OC(C)=O)c4OC(C)=O)cc3O[C@]2([C@@H](C)CC)C(=O)N1O` as the compound, how does the TGI (IGROV1 ovarian) read?
A: 44.7 µM

Q: What about the TGI (U251 CNS) of the same compound?
A: > 50 µM

Q: And the TGI (MOLT-4 leukemia)?
A: > 50 µM

Q: What about the TGI (PC-3 prostate) of the same compound?
A: > 50 µM

Q: What about the TGI (K-562 leukemia) of the same compound?
A: 29.2 µM

Q: What about the TGI (SF-268 CNS) of the same compound?
A: > 50 µM

Q: What about the TGI (SK-MEL-5 melanoma) of the same compound?
A: > 50 µM

Q: And the TGI (UACC-257 melanoma)?
A: > 50 µM

Q: And the TGI (OVCAR-5 ovarian)?
A: > 50 µM

Q: What about the TGI (MDA-MB-231 breast) of the same compound?
A: > 50 µM
